Results taken from US20090036473A1, “NOVEL QUINAZOLINONE DERIVATIVES AND THEIR MEDICAL USE” (priority 2006, published 2009).

Target: T1, human Kv72+3 channels (Homo sapiens, UniProt O43525+O43526)
T1 construct: expressed in transfected cells; host or cells: CHO K1 cells, stably expressing
Test: patch-clamp set-up using CHO K1 cell lines stably expressing the human Kv72+3 channels
Assay type: cell-based
Conditions: at a concentration of 3 μM, CHO K1 cells stably expressing human Kv72+3 channels
Protocol: For example, at a concentration of 3 μM, Compound A4 induces an increase in current amplitude in the order 190%, which is an indication of its potent Kv72+3 activating activity.

`CC(C)c1nc2ccccc2c(=O)n1NC(=O)[C@@H]1C[C@H]1c1ccccc1` (relative stereo) [Compound A4, (Trans)-2-Phenyl-cyclopropanecarboxylic acid (2-isopropyl-4-oxo-4H-quinazolin-3-yl)-amide] was tested, and the “increase in current amplitude” value was about 190%.
